Consider 5 compounds from patent US11826435B2, “Conduritol aziridine derivatives and uses thereof” (University of Saskatchewan, priority 2017, dated 2023).

In one data set the target is GCase (Homo sapiens (Human), UniProt P04062). The conditions noted are these: cited from earlier work; for ki/Ki previously reported: previously reported (ref 44).
The target in data set [1] is Cerezyme, a recombinant form of GCase (Homo sapiens (Human), UniProt P04062, R534H). The following applies: cited from earlier work.
Data set [2] concerns the target Cerezyme (Recombinant GCase) (Homo sapiens (Human), UniProt P04062, R534H). Briefly: Inactivation assay: residual Cerezyme activity with 2,4-DNP-β-Glc substrate. The format is biochemical. The conditions noted are these: 37° C., pH 5.5.
Description: Inactivation solutions contained a final concentration of 16.55 nM of Cerezyme® (Recombinant GCase) in 200 μL of Reaction Buffer (50 mM acetate, 0.2% v/v Triton X-100, 0.3% w/v sodium taurocholate, pH 5.5). […] These enzyme Reaction Buffers were brought to 37° C. and spiked with a corresponding inhibitor to make the final inhibitor concentration either 20 nM, 40 nM, 60 nM, 80 nM, 120 nM, 160 nM and 200 nM. Once the inhibitor was added this was considered time=0 minutes. Meanwhile a 96 well plate inside a Biotek Synergy 4 hybrid multi-mode reader at 37° C. was being incubated. In the wells of the plate were waiting a high concentration (3.2 mM) of 2,4-DNP-β-Glc substrate in 180 μL of Reaction Buffer. […] Once all the aliquots were added the solution in the wells was measured for absorbance at 400 nm for 8 minutes. […] Inactivation rates for varying inhibitor concentrations were calculated using GraphPad Prism software and Equation 2 (below). […]
Small aliquots of these reaction mixtures were withdrawn and diluted 20-fold in 96 well plates containing a final concentration of 4 mM of the substrate 2,4-DNP-β-D-Glc. […] Residual enzymatic activity at different time points and concentrations was monitored by quantifying the release of 2,4-DNP after 2,4-DNP-3-D-Glc cleavage by Cerezyme®. […]
Data set [3] concerns the target GCase in the presence of Saposin C (Homo sapiens (Human), UniProt P04062). Description: GCase inactivation rate in the presence of Saposin C. The following applies: in words. The format is biochemical.
For data set [4] the following is noted: in words; cited from earlier work.
The target of another data set is GCase over GBA2 and GBA3 (Homo sapiens (Human), UniProt P04062). The conditions noted are these: in words; cited from earlier work.

A value given as a limit tells only on which side of the number the result lay.

Sequence of GCase (P04062 40-536): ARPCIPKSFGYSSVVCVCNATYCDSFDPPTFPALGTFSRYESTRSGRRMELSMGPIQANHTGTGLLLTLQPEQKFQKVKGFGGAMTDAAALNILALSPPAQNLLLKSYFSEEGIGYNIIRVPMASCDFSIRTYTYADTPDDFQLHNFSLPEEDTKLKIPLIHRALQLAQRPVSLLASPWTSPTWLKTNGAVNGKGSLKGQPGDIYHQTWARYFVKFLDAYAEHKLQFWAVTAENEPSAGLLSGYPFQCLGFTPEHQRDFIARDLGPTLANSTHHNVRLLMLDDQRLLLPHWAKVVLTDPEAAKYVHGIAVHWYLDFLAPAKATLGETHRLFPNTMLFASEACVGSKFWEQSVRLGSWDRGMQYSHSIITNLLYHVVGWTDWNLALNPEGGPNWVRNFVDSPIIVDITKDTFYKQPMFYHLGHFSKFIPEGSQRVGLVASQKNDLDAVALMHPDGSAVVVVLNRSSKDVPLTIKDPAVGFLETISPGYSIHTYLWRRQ
Sequence of Cerezyme (Recombinant GCase) (P04062 40-536 R534H limits assumed): as the sequence (P04062 40-536) above, with R495H counted along it
Sequence of GCase over GBA2 and GBA3 (P04062 40-536): as the sequence (P04062 40-536) above
Sequence of GCase in the presence of Saposin C (P04062 40-536): as above
Sequence of Cerezyme, a recombinant form of GCase (P04062 40-536 R534H limits assumed): as the sequence (P04062 40-536) above, with R495H counted along it

Take butyl conduritol aziridine: at GCase, the ki/Ki previously reported is 3.8 ± 0.1 mM⁻¹ min⁻¹.
Consider hexyl conduritol aziridine, for which the ki/Ki previously reported at GCase is 640 ± 30 mM⁻¹ min⁻¹.
For `O=[N+]([O-])c1ccc(OC2O[C@H](CO)[C@@H](O)[C@H](O)[C@H]2F)c([N+](=O)[O-])c1` (stereo partly drawn) [Compound 1.1, β-2,4-dinitrophenyl-fluorodeoxyglucose], the t½ of glucosyl-enzyme in data set [1] is > 1300 min.
As for `O[C@H]1[C@H](O)[C@@H](O)[C@H]2[C@@H]([C@@H]1O)N2CCCCC#Cc1ccc(F)cc1` (mixture of isomers) [Compound 34, (±)-(1R,2S,3R,4R,5S,6S)-7-(6-(4-fluorophenyl)hex-5-yn-1-yl)-7-azabicyclo[4.1.0]heptane-2,3,4,5-tetraol], the ki/Ki in data set [2] came out at 5100 ± 100 mM⁻¹ min⁻¹.
For “N-octyl conduritol aziridine [Compound 1.7]”, the “inactivation rates towards GCase with Saposin C” value in data set [3] is “enhanced”. Also, the cell permeability result in data set [4] was “cell permeable”. Also, the ki/Ki at GCase (inhibition of GCase, reported data) was 25.0 μM^−1/min^−1; in data set [2], 4700 ± 250 mM⁻¹ min⁻¹. Also, the ki/Ki previously reported on GCase is 3670 ± 70 mM⁻¹ min⁻¹. Moreover, the ki on GCase (rate constant of inactivation of GCase, reported data) is 0.120 min⁻¹. On GCase over GBA2 and GBA3, the “selectivity for GCase over GBA2 and GBA3” value is “selective inhibition of GCase over GBA2 and GBA3”.
